pKi: −log10 of the molar value. Numbered stars: 1 amine (or outer) side, 2 acyl side, 3 side chain; on linkers, the order of the positions; unused ones are H or OH. Square brackets hold non-standard residues; d marks the D form. Peptide text beside a SMILES is read from it. * marks the point of attachment. DOTA = O=C(O)CN1CCN(CC(=O)O)CCN(CC(=O)*)CCN(CC(=O)O)CC1; Gly(N-(3-F-4-Me-benzyl)) = Cc1ccc(CNCC(=O)*)cc1F; Gly(Nα-4-MeO-benzyl) = COc1ccc(CNCC(=O)*)cc1; Api(1-amidino) = N=C(N)N1CCC(N)(C(=O)O)CC1; Hydrocinnamoyl(4-I) = O=C(CCc1ccc(I)cc1)*; Phe(3-F) = N[C@@H](Cc1cccc(F)c1)C(=O)O; 2Nal = N[C@@H](Cc1ccc2ccccc2c1)C(=O)O; d2Nal = N[C@H](Cc1ccc2ccccc2c1)C(=O)O; X1 = O=C(CN1CCC(N[*:1])CC1)[*:2]; 4Pal = N[C@@H](Cc1ccncc1)C(=O)O; d4Pal = N[C@H](Cc1ccncc1)C(=O)O; Cha = N[C@@H](CC1CCCCC1)C(=O)O; Octanoyl = CCCCCCCC(=O)*; Api = NC1(C(=O)O)CCNCC1; PEG2 = NCCOCCOCCC(=O)O; AEEA = NCCOCCOCC(=O)O; Ahx = NCCCCCC(=O)O; azaGly = NNC(=O)O
These compounds were tested against human kisspeptin receptor (Homo sapiens (Human), UniProt Q969F8) (assay: Human KISS1R binding assay (membrane competition binding)). Settings: 90 min at room temperature; competition with 0.2 nM [125I]-metastin (45-54); Flp-In T-Rex 293 kisspeptin membranes; metal complexes nonradioactive Ga, In, Lu; read-out: hKiSSR Binding Ki (90 min).
Sequence of human kisspeptin receptor (Q969F8 whole entry): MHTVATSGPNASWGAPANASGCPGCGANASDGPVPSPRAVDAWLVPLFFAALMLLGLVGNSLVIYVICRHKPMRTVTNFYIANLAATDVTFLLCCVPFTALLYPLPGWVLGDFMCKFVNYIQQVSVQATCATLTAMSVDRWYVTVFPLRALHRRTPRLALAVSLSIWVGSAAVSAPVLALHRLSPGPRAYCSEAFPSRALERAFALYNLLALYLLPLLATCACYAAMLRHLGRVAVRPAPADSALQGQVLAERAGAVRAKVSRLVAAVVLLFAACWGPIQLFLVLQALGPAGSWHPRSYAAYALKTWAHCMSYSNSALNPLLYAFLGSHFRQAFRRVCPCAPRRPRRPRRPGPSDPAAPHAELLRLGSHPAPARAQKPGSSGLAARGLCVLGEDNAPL
Experimental: Crude membrane fractions are prepared from Flp-In T-Rex 293 (Thermo Fisher) cell line expressing the human kisspeptin receptor. The cells are grown to 85-100% confluence on standard tissue culture dishes in Dulbecco's Modified Eagles Medium (DMEM) (Corning) supplemented with 10% FBS (Gemini), 1% penicillin-streptomycin-glutamine (Gibco), 500 μg/mL hygromycin, and 15 μg/mL blastacidin. 48 hrs prior to preparing membranes 10 μg/ml of tetracycline is added to the culture media to induce receptor expression. To prepare membranes, cells are scraped and collected in 1× Dulbecco's phosphate buffered saline (Corning) and then pelleted at 1000 RPMs. The cell pellet is reconstituted in membrane preparation buffer (20 mM HEPES, 6 mM MgCl2 and 1 mM EGTA, protease inhibitor tablets (Pierce), pH 7.4) and placed in a cell disruption vessel (Parr Instrument company) at 1000 PSI for 30 min on ice. The pressurized contents are then released and spun down at 1000 RPMs and the supernatant is collected and further centrifuged at 15,000 RPMs to pellet the membranes. The membrane pellet is resuspended in membrane preparation buffer, snap frozen and stored at −80° C. for later use.
The human kisspeptin membrane binding assay utilizes the following components: radiolabel [^125I]-metastin (45-54) (human) (Perkinhmer), crude Flp-In T-Rex 293 kisspeptin membranes, and competing small molecule and peptide ligands. The assay is initiated by combining in assay buffer (50 mM TrisHCl, 5 mM MgCl2, 2 mM EGTA, 10 mM CaCl2, 0.1% BSA, pH 7.4) a dose response of competing ligand (final concentrations are typically 0-10,000 nM), 5-10 μg of Flp-In T-Rex 293 kisspeptin membranes, and 0.2 n M [^125I]-metastin (45-54) in a 96-well assay plate and allowed to incubate 90 minutes at room temperature. Assay contents are then filtered through unifilter CF/C: microplates (PerkinElmer) pre-soaked with 0.5% BSA and washed with 9×400 μL of cold wash buffer (10 mM HEPES, 500 mM NaCl, 0.1% Tween-20, pH7.4). Assay plates are read using a Microbeta^2 (PerkinElmer) and Ki values for compounds are determined using a GraphPad Prism 9.3 non-linear regression analysis.

| Compound | pKi |
| --- | --- |
| CC(C)C[C@H](NC(=O)NNC(=O)[C@H](Cc1ccccc1)NC(=O)[C@@H](NC(=O)[C@H](CC(N)=O)NC(=O)[C@@H](Cc1ccc2ccccc2c1)NC(=O)[C@@H](Cc1ccc(O)cc1)NC(=O)CCOCCOCCN)[C@@H](C)O)C(=O)NC1(C(=O)N[C@@H](Cc2c[nH]c3ccccc23)C(N)=O)CCN(C(=N)N)CC1 [Compound 410] (H-[PEG2][dY][d2Nal]NTF[azaGly]L[Api(1-amidino)]W-NH2) | > 8.00 |
| COc1ccc(CNCC(=O)N2CCC(NC(=O)[C@H](CC(C)C)NC(=O)NNC(=O)[C@H](Cc3ccccc3)NC(=O)[C@@H](NC(=O)[C@H](CC(N)=O)NC(=O)[C@@H](Cc3ccncc3)NC(=O)[C@@H](Cc3ccc(O)cc3)NC(=O)CCCCCNC(=O)CN3CCN(CC(=O)O)CCN(CC(=O)O)CCN(CC(=O)O)CC3)[C@@H](C)O)(C(=O)N[C@@H](Cc3ccncc3)C(N)=O)CC2)cc1 [Compound 299] ({DOTA-Ahx}-[dY][d4Pal]NTF[azaGly]L[Api](Gly(Nα-4-MeO-benzyl))[4Pal]-NH2) | > 8.00 |
| CC(=O)N[C@H](Cc1ccc(O)cc1)C(=O)N[C@H](Cc1c[nH]c2ccccc12)C(=O)N[C@@H](CC(N)=O)C(=O)N[C@H](C(=O)N[C@@H](CC1CCCCC1)C(=O)NNC(=O)N[C@@H](CC(C)C)C(=O)NC1(C(=O)N[C@@H](Cc2c[nH]c3ccccc23)C(N)=O)CCN(C(=O)CNCc2ccc(C)c(F)c2)CC1)[C@@H](C)O [Compound 391] (Ac-[dY][dW]NT[Cha][azaGly]L[Api](Gly(N-(3-F-4-Me-benzyl)))W-NH2) | > 8.00 |
| CCCCCCCC(=O)N[C@@H](CCCCNC(=O)CN1CCN(CC(=O)O)CCN(CC(=O)O)CCN(CC(=O)O)CC1)C(=O)N[C@@H](CC(N)=O)C(=O)N[C@H](C(=O)N[C@@H](Cc1ccccc1)C(=O)NNC(=O)N[C@@H](CC(C)C)C(=O)NC1(C(=O)N[C@@H](Cc2ccncc2)C(N)=O)CCN(C(=N)N)CC1)[C@@H](C)O [Compound 226] (Octanoyl-K(DOTA)NTF[azaGly]L[Api(1-amidino)][4Pal]-NH2) | 7.00 to 8.00 |
| CC(C)C[C@H](NC(=O)NNC(=O)[C@H](Cc1ccccc1)NC(=O)CCCCCNC(=O)[C@H](Cc1ccc2ccccc2c1)NC(=O)[C@@H](Cc1ccc(O)cc1)NC(=O)CN1CCN(CC(=O)O)CCN(CC(=O)O)CCN(CC(=O)O)CC1)C(=O)NC1(C(=O)N[C@@H](Cc2c[nH]c3ccccc23)C(N)=O)CCN(C(=N)N)CC1 [Compound 287] ({DOTA}-[dY][2Nal][Ahx]F[azaGly]L[Api(1-amidino)]W-NH2) | 7.00 to 8.00 |
| CC(C)C[C@H](NC(=O)NNC(=O)[C@H](Cc1ccccc1)NC(=O)[C@@H](NC(=O)[C@H](CC(N)=O)NC(=O)[C@@H](Cc1ccc2ccccc2c1)NC(=O)[C@@H](Cc1ccc(O)cc1)NC(=O)CCOCCOCCNC(=O)CCc1ccc(I)cc1)[C@@H](C)O)C(=O)NC1(C(=O)N[C@@H](Cc2c[nH]c3ccccc23)C(N)=O)CCN(C(=N)N)CC1 [Compound 394] ({Hydrocinnamoyl(4-I)-PEG2}-[dY][d2Nal]NTF[azaGly]L[Api(1-amidino)]W-NH2) | > 8.00 |
| Cc1ccc(CNCC(=O)N2CCC(NC(=O)[C@H](CC(C)C)NC(=O)NNC(=O)[C@H](Cc3ccccc3)NC(=O)[C@@H](NC(=O)[C@H](CC(N)=O)NC(=O)[C@@H](Cc3c[nH]c4ccccc34)NC(=O)[C@@H](Cc3ccc(O)cc3)NC(=O)COCCOCCNC(=O)CN3CCN(CC(=O)O)CCN(CC(=O)O)CCN(CC(=O)O)CC3)[C@@H](C)O)(C(=O)N[C@@H](Cc3c[nH]c4ccccc34)C(N)=O)CC2)cc1F [Compound 57] ({DOTA-AEEA}-[dY][dW]NTF[azaGly]L[Api](Gly(N-(3-F-4-Me-benzyl)))W-NH2) | > 8.00 |
| Cc1ccc(CNCC(=O)N2CCC(NC(=O)[C@H](CC(C)C)NC(=O)NNC(=O)[C@H](Cc3cccc(F)c3)NC(=O)[C@@H](NC(=O)[C@H](CC(N)=O)NC(=O)[C@H](CCC(=O)O)NC(=O)[C@@H](Cc3ccc(O)cc3)NC(=O)CN3CCC(NC(=O)CN4CCN(CC(=O)O)CCN(CC(=O)O)CCN(CC(=O)O)CC4)CC3)[C@@H](C)O)(C(=O)N[C@@H](Cc3c[nH]c4ccccc34)C(N)=O)CC2)cc1F [Compound 24] ({DOTA}-[X1][dY]ENT[Phe(3-F)][azaGly]L[Api](Gly(N-(3-F-4-Me-benzyl)))W-NH2) | > 8.00 |

— patent US20250312499A1, “KISSPEPTIN RECEPTOR (KISS1R) TARGETED THERAPEUTICS AND USES THEREOF” (priority 2024, published 2025)
